Reference: publication PMC8333062, “Chemical tools for epichaperome-mediated interactome dysfunctions of the central nervous system” (Nature Communications, 2021)

How the values were obtained:
GBM#8 = assay: Survival studies in mice; type: in vivo, mouse; conditions: 50 mg kg^−1 iv, three times per week, n=7
Text: (§1) Survival of the animals was followed until the mice became morbid (physical and/or neurological symptoms), at which point, the animals were killed. Typically, mice became symptomatic several weeks to a few months after GSC implantation. Log-rank tests were used to compare the distribution of time to killing across groups and Kaplan–Meier curves were produced.

GBM#7 = assay: Survival studies in mice; type: in vivo, mouse; conditions: 50 mg kg^−1 iv, three times per week, n=7
Text: as §1

CYP1A2 = target: T1, CYP1A2 (Homo sapiens, UniProt P05177); assay: Cytochrome P450 profiling, furafylline; type: in vitro ADME; conditions: for % PU-HZ151 remaining: Furafylline
T1 sequence (P05177 1-516): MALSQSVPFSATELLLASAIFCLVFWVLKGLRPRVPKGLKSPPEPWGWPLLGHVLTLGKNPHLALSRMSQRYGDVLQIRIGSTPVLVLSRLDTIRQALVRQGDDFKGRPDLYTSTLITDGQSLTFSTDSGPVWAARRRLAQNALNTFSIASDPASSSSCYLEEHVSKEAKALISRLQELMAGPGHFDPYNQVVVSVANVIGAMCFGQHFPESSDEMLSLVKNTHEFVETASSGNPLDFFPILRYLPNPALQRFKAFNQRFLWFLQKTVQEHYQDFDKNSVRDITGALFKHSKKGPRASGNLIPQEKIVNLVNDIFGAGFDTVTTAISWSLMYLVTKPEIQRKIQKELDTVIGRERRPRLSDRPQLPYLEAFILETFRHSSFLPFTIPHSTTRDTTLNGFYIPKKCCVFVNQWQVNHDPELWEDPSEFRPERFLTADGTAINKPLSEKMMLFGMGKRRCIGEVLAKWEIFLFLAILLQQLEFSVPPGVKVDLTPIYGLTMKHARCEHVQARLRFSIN
Procedure: To identify cytochrome P450 enzymes responsible for PU-HZ151’s metabolism in human liver microsomes the following procedure was followed. Phosphate buffer (100 mM, pH 7.4) was prepared monthly and stored at 4 °C. Frozen stock solutions of human liver microsomes (Life Technologies; Cat# HMMCPL) were used once after thawing and were not refrozen. NADPH stock solution (50 mM) in distilled water was prepared fresh daily. […] The stock solutions of these P450 inhibitors were prepared in DMSO. […] The concentration of the chemical inhibitors used in the assay were furafylline (10 μM), tranylcypromine (2 μM), ketoconazole (1 μM), troleandomycin (20 μM), orphenadrine (50 μM), montelukast (3 μM), sulfaphenazole (10 μM), benzylnirvanol (1 μM), quinidine (1 μM), and 1-aminobenzotriazole (1 mM) for all the P450 enzymes. Timing of the reactions was started following the addition of NADPH/magnesium chloride mix and PU-HZ151. Time-dependent chemical inhibitors (furafylline, troleandomycin, orphenadrine, and 1-aminobenzotriazole) were preincubated with human microsomes in the presence of NADPH and magnesium chloride for 15 min before the addition of PU-HZ151 and timing of reactions was started after addition of PU-HZ151. […] Following brief vortexing and centrifugation, a 200 µL aliquot of the supernatant was transferred to a tube, and 10 µL of haloperidol (1 µg mL^−1) as internal standard was added. Following brief vortexing and centrifugation, 50 µL of supernatant was added to a 96-well plate for subsequent LC-MS/MS analysis. PU-HZ151 was similarly tested as above in the absence of CYP inhibitors for comparative purposes. All samples were assayed in duplicate. […] This was similarly performed for incubations of PU-HZ151 performed in the absence of CYP inhibitor.

[1] = system: epichaperome +ve (MDA-MB-468) tumors; assay: Small-animal PET, xenografted tumors; type: in vivo, mouse; conditions: 48 h post-injection
Procedure: (§2) We opted for the use of xenografted MDA-MB-468 and ASPC1 tumors in mice (target-positive versus target-negative, respectively, with equal total HSP90 levels, Fig. 3b). Because PU-HZ151 rapidly distributes throughout the body (see Fig. 2a and further below), and taking in consideration the high concentration of chaperones in cells (>100 µM)[41], a bolus injection creates a rapid equilibrium mixture state. Subsequent to reaching an ‘equilibrium’ state throughout the body, PU-HZ151 then rapidly clears from plasma, which initiates a body-wide dilution state. Recording the differential concentration-time curves for PU-HZ151 in the two tumor types offers the relative dissociation rate constants, but most importantly, informs on probe’s epichaperome selectivity (Fig. 3a).
(§3) For subcutaneous xenografts, mice were anesthetized with 2% isoflurane (Baxter Healthcare) (2 l min^−1 medical air). […]
(§4) Orthotopic GBM xenografts in mice were established by injection of 5 × 10^5 cells in 2 μL PBS. […] PET data for each mouse was recorded using static scans of 15 min and acquired at the indicated times post injection. Quantification and %ID g^−1 values were calculated by manually drawing regions of interests in three different frames and determining the average values using ASI Pro VM™ MicroPET Analysis software (Siemens Medical Solutions, Knoxville, TX).

[2] = system: epichaperome -ve (ASPC1) tumors; assay: Small-animal PET, xenografted tumors; type: in vivo, mouse; conditions: 48 h post-injection
Procedure: as §2, §3, §4

For `CC(C)(C)CNCCn1c(Sc2cc3c(cc2I)OCO3)nc2c(N)ncnc21` [Compound 85], the “survival vs vehicle, log-rank P” value (GBM#8) was 0.21, the “survival vs vehicle, log-rank P” value (GBM#7) was 0.0061 and the “% PU-HZ151 remaining” value (CYP1A2; 15 min) was 65.9%. For the same compound, the “% PU-HZ151 remaining” value (CYP1A2; 30 min) was 47.3%, the “% PU-HZ151 remaining” value (CYP1A2; 60 min) was 26.3% and the “inhibition of PU-HZ151 metabolism” value (CYP1A2; furafylline) was 11%. The “tumor retention by PET” value [1] was “clear retention and visualization of MDA-MB-468 tumors even at 48 h post-injection” and the “tumor retention by PET” value [2] was “no signal was noted in ASPC1 tumors”.
